# Data from PMC4685510, “A Cell Biologist’s Field Guide to Aurora Kinase Inhibitors” (Frontiers in Oncology, 2015).
# Columns and labels:
# Experiment in all cases: biochemical
# Type in all cases: biochemical
# [1] = molecular target: T1, 363 human kinases (including Aurora A/B/C) (Homo sapiens, UniProt Q9Y2U5); conditions: MEKK2; for remaining activity at 0.1 µM: 100 nM; for remaining activity at 0.1 µM / remaining activity at 0.5 µM: read-out: % Enzyme Activity (relative to DMSO controls)
# T1 sequence (Q9Y2U5 1-619): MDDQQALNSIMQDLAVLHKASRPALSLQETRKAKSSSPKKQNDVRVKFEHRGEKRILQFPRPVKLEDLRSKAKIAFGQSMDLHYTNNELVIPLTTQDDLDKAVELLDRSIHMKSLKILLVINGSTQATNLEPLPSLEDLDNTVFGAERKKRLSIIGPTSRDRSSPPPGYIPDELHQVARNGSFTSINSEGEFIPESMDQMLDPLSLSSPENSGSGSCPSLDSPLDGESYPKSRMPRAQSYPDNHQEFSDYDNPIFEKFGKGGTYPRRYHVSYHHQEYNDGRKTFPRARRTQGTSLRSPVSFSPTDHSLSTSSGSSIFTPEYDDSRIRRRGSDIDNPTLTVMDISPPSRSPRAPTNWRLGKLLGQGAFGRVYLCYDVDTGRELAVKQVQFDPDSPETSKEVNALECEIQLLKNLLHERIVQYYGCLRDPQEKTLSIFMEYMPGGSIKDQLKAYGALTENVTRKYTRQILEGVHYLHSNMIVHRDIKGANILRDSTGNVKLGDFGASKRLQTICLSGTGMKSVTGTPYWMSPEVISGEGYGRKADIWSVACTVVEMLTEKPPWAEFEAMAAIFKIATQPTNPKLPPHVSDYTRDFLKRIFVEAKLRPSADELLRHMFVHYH
# Description: (§1) However, the Aurora A/B selectivity ratios derived from our in vitro and in vivo data can be compared to prioritize inhibitors.
# [2] = molecular target: T2, 363 human kinases (including Aurora A/B/C) (Homo sapiens, UniProt P42679); conditions: CTK/MATK, [ATP] 100 µM; for remaining activity at 0.1 µM: 100 nM; for remaining activity at 0.1 µM / remaining activity at 0.5 µM: read-out: % Enzyme Activity (relative to DMSO controls)
# T2 sequence (P42679 1-507): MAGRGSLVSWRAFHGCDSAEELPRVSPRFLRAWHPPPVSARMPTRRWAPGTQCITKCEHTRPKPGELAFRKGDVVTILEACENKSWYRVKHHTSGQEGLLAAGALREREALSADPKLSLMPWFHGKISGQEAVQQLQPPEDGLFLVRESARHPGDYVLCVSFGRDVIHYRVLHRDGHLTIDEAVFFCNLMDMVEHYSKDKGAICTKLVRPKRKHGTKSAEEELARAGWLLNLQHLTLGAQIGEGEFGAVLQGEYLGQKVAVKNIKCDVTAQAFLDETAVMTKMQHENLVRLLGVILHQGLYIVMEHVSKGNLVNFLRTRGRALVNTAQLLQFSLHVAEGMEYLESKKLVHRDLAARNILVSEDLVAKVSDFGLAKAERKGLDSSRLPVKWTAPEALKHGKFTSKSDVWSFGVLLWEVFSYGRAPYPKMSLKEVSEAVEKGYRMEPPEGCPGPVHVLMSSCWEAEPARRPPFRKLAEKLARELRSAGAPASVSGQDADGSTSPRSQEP
# Description: as §1
# [3] = molecular target: 363 human kinases (including Aurora A/B/C) (Homo sapiens, UniProt P04626); conditions: ERBB2/HER2, [ATP] 20 µM; for remaining activity at 0.1 µM: 100 nM; for remaining activity at 0.1 µM / remaining activity at 0.5 µM: read-out: % Enzyme Activity (relative to DMSO controls)
# Description: as §1
# [4] = molecular target: T3, 363 human kinases (including Aurora A/B/C) (Homo sapiens, UniProt Q13470); conditions: TNK1; for remaining activity at 0.1 µM: 100 nM; for remaining activity at 0.1 µM / remaining activity at 0.5 µM: read-out: % Enzyme Activity (relative to DMSO controls)
# T3 sequence (Q13470 1-666): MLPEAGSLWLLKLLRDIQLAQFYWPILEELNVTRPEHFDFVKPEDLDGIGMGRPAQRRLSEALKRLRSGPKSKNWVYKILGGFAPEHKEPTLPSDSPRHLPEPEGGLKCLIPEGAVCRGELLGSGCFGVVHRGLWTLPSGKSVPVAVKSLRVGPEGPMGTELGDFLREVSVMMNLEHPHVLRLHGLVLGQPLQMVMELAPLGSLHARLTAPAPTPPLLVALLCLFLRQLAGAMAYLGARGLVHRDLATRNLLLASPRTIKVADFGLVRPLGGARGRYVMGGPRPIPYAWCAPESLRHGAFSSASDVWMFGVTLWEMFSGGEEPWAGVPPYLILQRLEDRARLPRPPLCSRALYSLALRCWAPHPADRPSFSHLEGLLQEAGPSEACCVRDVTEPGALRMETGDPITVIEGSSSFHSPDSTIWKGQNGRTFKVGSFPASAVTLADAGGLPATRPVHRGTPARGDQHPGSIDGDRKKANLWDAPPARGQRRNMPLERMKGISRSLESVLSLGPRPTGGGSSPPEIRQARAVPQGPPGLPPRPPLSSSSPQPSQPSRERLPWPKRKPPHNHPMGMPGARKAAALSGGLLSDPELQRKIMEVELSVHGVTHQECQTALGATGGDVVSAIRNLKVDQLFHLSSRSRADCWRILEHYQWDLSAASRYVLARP
# Description: as §1
# [5] = molecular target: T4, 363 human kinases (including Aurora A/B/C) (Homo sapiens, UniProt O43781); conditions: DYRK3, [ATP] 5 µM; for remaining activity at 0.1 µM: 100 nM; for remaining activity at 0.1 µM / remaining activity at 0.5 µM: read-out: % Enzyme Activity (relative to DMSO controls)
# T4 sequence (O43781 1-588): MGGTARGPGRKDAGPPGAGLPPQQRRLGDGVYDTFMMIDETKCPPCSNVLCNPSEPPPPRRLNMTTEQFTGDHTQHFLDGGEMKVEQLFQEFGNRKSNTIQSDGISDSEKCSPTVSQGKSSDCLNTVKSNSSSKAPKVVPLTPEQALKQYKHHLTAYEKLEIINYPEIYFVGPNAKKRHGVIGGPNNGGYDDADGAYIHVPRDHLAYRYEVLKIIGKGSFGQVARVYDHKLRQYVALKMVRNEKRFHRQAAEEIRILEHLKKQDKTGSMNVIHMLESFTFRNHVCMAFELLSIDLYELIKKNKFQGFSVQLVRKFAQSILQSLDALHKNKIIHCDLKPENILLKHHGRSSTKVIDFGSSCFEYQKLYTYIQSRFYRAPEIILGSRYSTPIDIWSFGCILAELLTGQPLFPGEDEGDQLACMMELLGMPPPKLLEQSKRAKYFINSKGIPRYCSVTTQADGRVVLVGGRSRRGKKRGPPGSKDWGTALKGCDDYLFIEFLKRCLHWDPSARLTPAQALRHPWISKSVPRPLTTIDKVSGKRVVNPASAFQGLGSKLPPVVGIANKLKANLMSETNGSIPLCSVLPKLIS
# Description: as §1
# Chain of 363 human kinases (including Aurora A/B/C) (Homo sapiens, UniProt P04626) (P04626 23-1255): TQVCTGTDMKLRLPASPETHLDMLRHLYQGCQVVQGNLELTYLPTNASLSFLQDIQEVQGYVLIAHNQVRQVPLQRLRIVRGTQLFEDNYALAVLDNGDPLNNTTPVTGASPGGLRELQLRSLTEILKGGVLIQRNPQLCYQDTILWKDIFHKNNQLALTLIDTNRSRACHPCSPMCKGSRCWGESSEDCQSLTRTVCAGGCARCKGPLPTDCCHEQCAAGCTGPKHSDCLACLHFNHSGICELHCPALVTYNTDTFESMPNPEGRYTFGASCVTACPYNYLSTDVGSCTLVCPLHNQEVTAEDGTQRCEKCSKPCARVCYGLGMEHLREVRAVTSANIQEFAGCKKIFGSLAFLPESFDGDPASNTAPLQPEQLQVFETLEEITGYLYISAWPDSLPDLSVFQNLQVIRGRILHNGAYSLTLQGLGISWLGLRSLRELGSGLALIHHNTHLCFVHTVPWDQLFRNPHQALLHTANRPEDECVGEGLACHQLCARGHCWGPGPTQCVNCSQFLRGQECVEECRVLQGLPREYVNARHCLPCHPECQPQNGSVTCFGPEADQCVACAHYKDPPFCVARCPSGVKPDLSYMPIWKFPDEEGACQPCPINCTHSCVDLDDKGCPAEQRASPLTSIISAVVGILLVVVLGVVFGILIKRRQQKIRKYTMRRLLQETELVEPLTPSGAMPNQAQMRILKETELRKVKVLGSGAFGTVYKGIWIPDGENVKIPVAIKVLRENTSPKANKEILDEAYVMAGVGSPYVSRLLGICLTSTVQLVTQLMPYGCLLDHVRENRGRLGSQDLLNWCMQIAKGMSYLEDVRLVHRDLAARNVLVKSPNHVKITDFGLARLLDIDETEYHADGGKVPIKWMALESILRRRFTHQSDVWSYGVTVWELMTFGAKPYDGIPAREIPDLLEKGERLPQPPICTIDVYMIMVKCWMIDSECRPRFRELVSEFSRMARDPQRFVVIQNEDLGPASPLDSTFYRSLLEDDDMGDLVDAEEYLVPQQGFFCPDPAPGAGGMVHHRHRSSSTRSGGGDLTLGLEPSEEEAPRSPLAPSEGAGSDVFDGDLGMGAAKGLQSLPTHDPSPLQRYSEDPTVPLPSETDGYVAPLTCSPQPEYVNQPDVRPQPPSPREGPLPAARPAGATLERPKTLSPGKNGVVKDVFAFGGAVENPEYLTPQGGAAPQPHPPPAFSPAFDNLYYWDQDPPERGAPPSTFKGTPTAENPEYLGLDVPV
smiles,measurement,setting,value
O=C(O)[C@]1(Cc2cccc(Nc3nccs3)n2)CC[C@@H](Oc2cccc(Cl)c2F)CC1 [MK-5108],remaining activity at 0.1 µM,[1],102%
same,remaining activity at 0.5 µM,[1]; 500 nM,83.9%
same,remaining activity at 0.1 µM,[2],103%
same,remaining activity at 0.5 µM,[2]; 500 nM,129%
same,remaining activity at 0.1 µM,[3],100%
same,remaining activity at 0.5 µM,[3]; 500 nM,111%
same,remaining activity at 0.1 µM,[4],22.9%
same,remaining activity at 0.5 µM,[4]; 500 nM,6.3%
same,remaining activity at 0.1 µM,[5],87.2%
same,remaining activity at 0.5 µM,[5]; 500 nM,92.2%
O=C(c1cccc(Cl)c1F)N1CCN(Cc2cccc(Nc3nccs3)n2)CC1 [MK-8745],% Enzyme Activity (relative to DMSO controls),[1]; 500 nM,96.27%
same,remaining activity at 0.5 µM,[1]; 500 nM,97.5%
same,% Enzyme Activity (relative to DMSO controls),[2]; 500 nM,86.22%
same,remaining activity at 0.5 µM,[2]; 500 nM,86.8%
same,% Enzyme Activity (relative to DMSO controls),[3]; 500 nM,99.40%
same,remaining activity at 0.5 µM,[3]; 500 nM,99.8%
same,% Enzyme Activity (relative to DMSO controls),[4]; 500 nM,75.54%
same,remaining activity at 0.5 µM,[4]; 500 nM,77.7%
same,% Enzyme Activity (relative to DMSO controls),[5]; 500 nM,92.33%
same,remaining activity at 0.5 µM,[5]; 500 nM,92.3%
CCn1cc(-c2ccnc3[nH]c(-c4cccc(CN(C)C)c4)cc23)c(-c2ccc(NC(=O)N(C)C)cc2)n1 [GSK1070916],remaining activity at 0.1 µM,[1],81.7%
same,remaining activity at 0.1 µM,[2],82.4%
same,remaining activity at 0.1 µM,[3],103%
same,remaining activity at 0.1 µM,[4],90.7%
same,remaining activity at 0.1 µM,[5],96%
